Measured values reported in US20220339143A1, “TAK-925 FOR USE IN TREATING NARCOLEPSY” (Takeda Pharmaceutical Company Limited, priority 2019, published 2022).
Like-named read-outs stand apart in the source and are kept apart here.

Test: Single dose PK in healthy subjects (Cohorts 1, 2, S1 and S2), plasma
Format: in vivo, human
Conditions: human, plasma, intravenous
Experimental: This study investigates (i) the safety and tolerability of Compound A (methyl (2R,3S)-3-((methylsulfonyl)amino)-2-(((cis-4-phenylcyclohexyl)oxy)methyl)piperidine-1-carboxylate) when a single dose given as a 9 hour continuous IV infusion is administered to healthy adults, healthy elderly subjects and patients with narcolepsy type 1 (NT1); (ii) the pharmacokinetics of Compound A when a single dose given as a 9 hour continuous IV infusion is administered to healthy adults, healthy elderly subjects and patients with narcolepsy type 1; and (iii) the pharmacodynamics (PD) effects of Compound A, primarily by evaluation of the sleep latency on MWT when a single dose given as a 9 hour continuous IV infusion is administered to patients with narcolepsy type 1.
Pharmacokinetics: Concentrations of Compound A in plasma, and CSF, and pharmacokinetics parameters.
On average, the time to reach the plateau appeared to be approximately 3 to 4 hours after the start of infusion. […] After switching off the IV infusion, Compound A plasma concentrations declined rapidly and in a biphasic manner with a mean terminal disposition phase t1/2z ranging approximately from 3.4 to 5.1 hours across all doses. […] Table 5 provides a summary of plasma concentrations of Compound A after a single IV infusion in healthy subjects. Table 6 provides a summary of pharmacokinetic parameters of Compound A after a single IV infusion in healthy subjects.

[1] = 112 mg, read-out: Plasma concentration, Median
[2] = 112 mg, read-out: Plasma concentration, Minimum
[3] = 112 mg, read-out: Plasma concentration, Q1
[4] = 112 mg, read-out: Plasma concentration, Q3
[5] = 112 mg, read-out: Plasma concentration, Maximum
[6] = 112 mg, read-out: Plasma concentration, Mean
[7] = 134.4 mg, read-out: Plasma concentration, Maximum
[8] = 134.4 mg, read-out: Plasma concentration, Mean
[9] = 134.4 mg, read-out: Plasma concentration, Median
[10] = 134.4 mg, read-out: Plasma concentration, Minimum
[11] = 134.4 mg, read-out: Plasma concentration, Q1
[12] = 134.4 mg, read-out: Plasma concentration, Q3

COC(=O)N1CCC[C@H](NS(C)(=O)=O)[C@@H]1CO[C@H]1CC[C@@H](c2ccccc2)CC1 [Compound A, methyl (2R,3S)-3-((methylsulfonyl)amino)-2-(((cis-4-phenylcyclohexyl)oxy)methyl)piperidine-1-carboxylate]
concentration at 1.5 h [1]: 197 ng/mL
concentration at 1.5 h [2]: 141 ng/mL
concentration at 1.5 h [3]: 164 ng/mL
concentration at 1.5 h [4]: 213 ng/mL
concentration at 2 h [5]: 223 ng/mL
concentration at 2 h [6]: 200 ng/mL
concentration at 2 h [1]: 207 ng/mL
concentration at 2 h [2]: 150 ng/mL
concentration at 2 h [3]: 195 ng/mL
concentration at 2 h [4]: 220 ng/mL
concentration at 3 h [5]: 276 ng/mL
concentration at 3 h [6]: 222 ng/mL
concentration at 3 h [1]: 216 ng/mL
concentration at 3 h [2]: 171 ng/mL
concentration at 3 h [3]: 209 ng/mL
concentration at 3 h [4]: 248 ng/mL
concentration at 4 h [5]: 290 ng/mL
concentration at 4 h [6]: 224 ng/mL
concentration at 4 h [1]: 216 ng/mL
concentration at 4 h [2]: 154 ng/mL
concentration at 4 h [3]: 215 ng/mL
concentration at 4 h [4]: 252 ng/mL
concentration at 6 h [5]: 206 ng/mL
concentration at 6 h [6]: 189 ng/mL
concentration at 6 h [1]: 192 ng/mL
concentration at 6 h [2]: 154 ng/mL
concentration at 6 h [3]: 186 ng/mL
concentration at 6 h [4]: 205 ng/mL
concentration at 8 h [5]: 221 ng/mL
concentration at 8 h [6]: 194 ng/mL
concentration at 8 h [1]: 195 ng/mL
concentration at 8 h [2]: 162 ng/mL
concentration at 8 h [3]: 176 ng/mL
concentration at 8 h [4]: 216 ng/mL
concentration at 9 h [5]: 247 ng/mL
concentration at 9 h [6]: 216 ng/mL
concentration at 9 h [1]: 221 ng/mL
concentration at 9 h [2]: 169 ng/mL
concentration at 9 h [3]: 192 ng/mL
concentration at 9 h [4]: 245 ng/mL
concentration at 0.5 h [7]: 201 ng/mL
concentration at 0.5 h [8]: 162 ng/mL
concentration at 0.5 h [9]: 152 ng/mL
concentration at 0.5 h [10]: 147 ng/mL
concentration at 0.5 h [11]: 148 ng/mL
concentration at 0.5 h [12]: 169 ng/mL
concentration at 1 h [7]: 273 ng/mL
concentration at 1 h [8]: 204 ng/mL
concentration at 1 h [9]: 187 ng/mL
concentration at 1 h [10]: 181 ng/mL
concentration at 1 h [11]: 181 ng/mL
concentration at 1 h [12]: 216 ng/mL
concentration at 1.5 h [7]: 289 ng/mL
concentration at 1.5 h [8]: 228 ng/mL
concentration at 1.5 h [9]: 221 ng/mL
concentration at 1.5 h [10]: 191 ng/mL
concentration at 1.5 h [11]: 197 ng/mL
concentration at 1.5 h [12]: 250 ng/mL
concentration at 2 h [7]: 335 ng/mL
concentration at 2 h [8]: 248 ng/mL
concentration at 2 h [9]: 244 ng/mL
concentration at 2 h [10]: 192 ng/mL
concentration at 2 h [11]: 199 ng/mL
concentration at 2 h [12]: 276 ng/mL
concentration at 3 h [7]: 388 ng/mL
concentration at 3 h [8]: 288 ng/mL
concentration at 3 h [9]: 278 ng/mL
concentration at 3 h [10]: 217 ng/mL
concentration at 3 h [11]: 260 ng/mL
concentration at 3 h [12]: 305 ng/mL
concentration at 4 h [7]: 355 ng/mL
concentration at 4 h [8]: 294 ng/mL
concentration at 4 h [9]: 308 ng/mL
concentration at 4 h [10]: 214 ng/mL
concentration at 4 h [11]: 256 ng/mL
concentration at 4 h [12]: 324 ng/mL
concentration at 6 h [7]: 302 ng/mL
concentration at 6 h [8]: 248 ng/mL
concentration at 6 h [9]: 260 ng/mL
concentration at 6 h [10]: 164 ng/mL
concentration at 6 h [11]: 206 ng/mL
concentration at 6 h [12]: 295 ng/mL
concentration at 8 h [7]: 313 ng/mL
concentration at 8 h [8]: 262 ng/mL
concentration at 8 h [9]: 262 ng/mL
concentration at 8 h [10]: 199 ng/mL
concentration at 8 h [11]: 242 ng/mL
concentration at 8 h [12]: 291 ng/mL
concentration at 9 h [7]: 330 ng/mL
concentration at 9 h [8]: 292 ng/mL
concentration at 9 h [9]: 300 ng/mL
concentration at 9 h [10]: 241 ng/mL
concentration at 9 h [11]: 268 ng/mL
concentration at 9 h [12]: 311 ng/mL
concentration at 0.5 h (180 mg, read-out: Plasma concentration, Maximum): 224 ng/mL
concentration at 0.5 h (180 mg, read-out: Plasma concentration, Mean): 180 ng/mL
concentration at 0.5 hr (180 mg, read-out: Plasma concentration, Median): 170 ng/mL
concentration at 0.5 hr (180 mg, read-out: Plasma concentration, Minimum): 161 ng/mL
concentration at 0.5 hr (180 mg, read-out: Plasma concentration, Q1): 163 ng/mL
concentration at 0.5 hr (180 mg, read-out: Plasma concentration, Q3): 194 ng/mL
